Source: patent publication EP4772520A1, “NOVEL PRODRUG-TYPE ANTICANCER AGENT TARGETING CANCER-SPECIFIC ENZYME ACTIVITY” (priority 2023, dated 2025)
Entries after “also recorded” stand apart in the source; their conditions may differ.

Columns and labels:
[1] = test system: luciferase-expressing SKOV3 cells; experiment: Therapeutic experiment of SN38-βGal in SKOV3 ovarian cancer peritoneal dissemination model; assay type: in vivo, mice; conditions: for body weight: 20 mg/kg i.p. 5 times a week; for tumor proliferation suppression effect: 20 mg/kg i.p. 5 times a week over 4 weeks and 3 days, vs Vehicle, 20 mg/kg
Experimental: Next, the therapeutic effect of SN38-βGal in the ovarian cancer peritoneal dissemination model was verified. Vehicle (DMSO) group (n = 5), SN38-βGal, and 20 mg/kg (n = 4) were set, and 20 mg/kg was intraperitoneally administered 5 times a week (2 days off) over 4 weeks and 3 days.
A specific procedure of the therapeutic experiment is shown below. • (1) 1.5 × 10^6 luciferase-expressing SKOV3 cells were intraperitoneally administered to BALB/cAJcl-nu/nu (7 weeks old). • (2) After one week, the formation of cancer was confirmed by luciferin/luciferase chemiluminescence. • (3) Intraperitoneal administration of the drug was started in a cycle in which the drug was administered to the mice in which formation of cancer was confirmed for five consecutive days within 1 week and the drug was withdrawn for 2 days. The drug was prepared by dissolving a 100 mM of DMSO stock in PBS, and administered in a total amount of 100 µL. • (4) On the evaluation day, 3 mg of luciferin potassium dissolved in 200 µL of PBS was intraperitoneally administered, and anesthetized with isoflurane, and then the luminescence value 15 minutes after the administration was measured with an in vivo imaging device. At the same time, the body weight was measured.
According to the same protocol as that of the first therapeutic experiment, Vehicle (DMSO) group (n = 5), SN38-βGal, and 20 mg/kg (n = 4) were set, and 20 mg/kg was intraperitoneally administered 5 times a week (2 days off) over 4 weeks and 3 days.

[2] = test system: mouse Lewis lung cancer-derived cell line LLC (3LL); experiment: Combination experiment with anti-PD-1 antibody, LLC subcutaneous tumor model; assay type: in vivo, mice; conditions: anti-PD-1 antibody 100 µg i.p. twice a week, SN38-βGlcNAc 150 mg/kg i.v. three times a week
Experimental: The effect of combination use of an anti-PD-1 antibody and SN38-βGlcNAc used as a main cancer immunotherapy in current lung cancer treatment was examined. Subcutaneous tumor model mice of a mouse Lewis lung cancer-derived cell line LLC (3LL) reported to have sensitivity to the anti-PD-1 antibody were evaluated, and the Vehicle (DMSO) group was n = 8, the anti-PD-1 antibody administration group was n = 5, the SN38-βGlcNAc administration group was n = 6, and the combination use group of the anti-PD-1 antibody and the SN38-βGlcNAc was n = 5. As an antibody, anti-mouse PD-1 antibody Clone RMP1-14 (Leinco Technologies, Inc.) was used. […]
A specific procedure of the therapeutic experiment is shown below. • (1) Hair on the dorsal side from the upper part of the right foot of C57BL/6JJcl (7 weeks old, female) was shaved with a hair clipper, and then LLC cells 2.0 ×10^6 cells (50 µL) were subcutaneously injected. • (2) The drug administration was started to the individual whose tumor volume reached about 50 to 170 mm^3 after 6 days. […] The anti-PD-1 antibody (Clone RMP1-14) was administered by intraperitoneal administration of 100 µg dissolved in 100 µL of PBS. • (3) The body weight was measured on the day of evaluation, and the tumor volume was evaluated with a vernier caliper. • (4) The time point when the tumor volume reached 2000 to 3000 mm^3 was taken as the endpoint.

[3] = test system: primary lung squamous cell carcinoma PDX tumor (DLUN013/F_PDX_000162); experiment: Tumor proliferation suppression test in PDX model mice; assay type: in vivo; conditions: 200 mg/kg i.v., 6 times over 2 weeks
Experimental: With respect to SN38-βGlcNAc showing high sensitivity by the organoid test, an in vivo tumor proliferation suppression test was performed using a primary lung squamous cell carcinoma PDX tumor (DLUN013/F_PDX_000162) established at Fukushima Medical University Medical and Industrial TR Center from the same patient. 200 mg/kg of SN38-βGlcNAc was intravenously administered to PDX subcutaneous tumor model mice a total of 6 times over 2 weeks as shown in the administration schedule (a of Fig. 30), and the tumor proliferation suppression effect was evaluated. The Vehicle (DMSO administration) group and the SN38-βGlcNAc administration group were n = 6, respectively.
A specific procedure of the therapeutic experiment is shown below. • (1) The tube containing the frozen tumor tissue was thawed in a thermostatic water bath at 37°C. […] The SN38-βGlcNAc was prepared by dissolving a 400 mM of DMSO stock in PBS, and was intravenously administered from the tail vein 3 times a week for 2 weeks at a dose of 200 mg/kg with a total amount of 100 µL. • (5) The tumor volume and body weight were measured on the day of evaluation. • (6) The tumor was removed, and then subjected to fluorescence imaging using HMRef-βGlcNAc (50 µM, PBS solution) in the presence and absence of PUGNAc (500 µM), which is an inhibitor of β-hexosaminidase.

Structure (SMILES)	body weight ([1]; first experiment)	tumor proliferation suppression effect ([1]; first experiment)	body weight ([1]; second experiment)	tumor proliferation suppression effect ([1]; second experiment)	body weight [2]	tumor proliferation suppression (tumor volume) ([2]; vs Vehicle)	body weight change [3]	tumor proliferation suppression effect (tumor volume) ([3]; n = 6, vs Vehicle)
CCc1c2c(nc3ccc(O[C@@H]4O[C@H](CO)[C@H](O)[C@H](O)[C@H]4O)cc13)-c1cc3c(c(=O)n1C2)COC(=O)[C@]3(O)CC [SN38-βGal]	no significant body weight loss was found	the tumor proliferation suppression effect was suggested again; also recorded: significantly suppressed tumor growth	no significant body weight loss was found	the tumor proliferation suppression effect was confirmed again; also recorded: significantly suppressed tumor growth	–	–	–	–
CCc1c2c(nc3ccc(O[C@@H]4O[C@H](CO)[C@@H](O)[C@H](O)[C@H]4NC(C)=O)cc13)-c1cc3c(c(=O)n1C2)COC(=O)[C@]3(O)CC [SN38-βGlcNAc]	–	–	–	–	no body weight loss was found in any group	showed tumor proliferation suppression	No body weight change was observed	the tumor growth was significantly suppressed
